Test [1] deals with T1, HiBit-KRAS^G12C (Homo sapiens, UniProt P01116, G12C). The experiment in a line: HiBit degradation assay in MiaPaCa-2 HiBit-KRas^G12C cells. In kind it is cell-based. Conditions: 24 hours; for Dmax: maximum degradation. The gist of the method: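 DC50 and Dmax come from 4-parameter fits of DMSO-normalized HiBit luminescence after 24 hours' exposure at 37° C to 10 μM–20 nM compound in 0.1% or 0.5% DMSO. Cells: MiaPaCa-2 carrying one endogenously HiBit-tagged KRAS^G12C allele; concentrations causing ≥50% […] viability loss (alamar blue) excluded.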
T1 sequence (P01116 1-186 isoform P01116-2 G12C limits assumed): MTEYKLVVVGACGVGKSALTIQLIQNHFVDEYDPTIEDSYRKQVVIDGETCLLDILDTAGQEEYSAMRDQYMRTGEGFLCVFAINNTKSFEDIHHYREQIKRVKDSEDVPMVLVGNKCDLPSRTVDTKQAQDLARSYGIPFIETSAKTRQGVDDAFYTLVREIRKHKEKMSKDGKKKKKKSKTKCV
(The HiBiT peptide binds its large partner to form an active luciferase.)

Test [2] concerns the target T1, HiBit-KRAS^G12C. Nature of the test: HiBit degradation assay in SW1573 HiBit-KRas^G12C cells. Also noted: expressed in transfected cells; host or cells: SW1573 (clone E6), modified pcDNA3.1 vector, TK promoter. The format is cell-based. As to conditions: 24 hours. A digest of the protocol: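 HiBit-KRAS G12C degradation was measured after a 24 h compound exposure (titrated 10 μM–20 nM) in engineered SW1573 cells. Lytic HiBit luminescence, expressed relative to DMSO controls, yielded DC50 and Dmax from 4-parameter fits. Concentrations causing ≥50% loss in alamar blue viability were omitted as cytotoxic.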

Setting [3] is: MIA PaCa-2, read-out: KRas^G12C-HiBiT (MiaPaCa; 0.1% DMSO) DMax, MiaPaCa-2 HiBit-KRas^G12C cells, 0.1% DMSO.
Setting [4] is: SW1573, read-out: KRas^G12C-HiBit (SW1573; 0.1% DMSO) Dmax**, SW1573 HiBit-KRas^G12C, 0.1% DMSO.
Setting [5] is: SW1573 HiBit-KRas^G12C, 0.1% DMSO, read-out: KRas^G12C-HIBit (SW1573; 0.1% DMSO) DC50*.
[6] abbreviates: MIA PaCa-2, MiaPaCa-2 HiBit-KRas^G12C cells, 0.5% DMSO, read-out: KRas^G12C-HiBiT (MiaPaCa; 0.5% DMSO) DMax.
The mark [7] stands for this setting: read-out: KRas^G12C-HiBiT (MiaPaCa; 0.5% DMSO) IC50, MiaPaCa-2 HiBit-KRas^G12C cells, 0.5% DMSO.
Where [8] appears, read: SW1573, SW1573 HiBit-KRas^G12C, 0.5% DMSO, read-out: KRas^G12C-HiBiT (SW1573; 0.5% DMSO) Dmax**.
Where [9] appears, read: read-out: KRas^G12C-HiBiT (SW1573; 0.5% DMSO) IC50***, SW1573 HiBit-KRas^G12C, 0.5% DMSO.
[10] abbreviates: MIA PaCa-2, MiaPaCa-2 HiBit-KRas^G12C cells, 0.1% DMSO, read-out: KRas^G12C-HiBiT (MiaPaCa; 0.1% DMSO) DMax.
Setting [11] is: SW1573, SW1573 HiBit-KRas^G12C, 0.1% DMSO, read-out: KRas^G12C-HiBit (SW1573; 0.1% DMSO) Dmax**.

Here are results for eight compounds from patent publication US20220370416A1, “COMPOUNDS AND METHODS FOR TARGETED DEGRADATION OF KRAS” (Arvinas Operations, Inc., priority 2020, published 2022).

Some results are limits rather than exact numbers.

For `C=C(F)C(=O)N1CCN(c2nc(OCCN3CCC(COCC(=O)N[C@H](C(=O)N4C[C@H](O)C[C@H]4C(=O)N[C@@H](C)c4ccc(-c5scnc5C)cc4)C(C)(C)C)CC3)nc3c(F)c(-c4cc(O)cc5ccccc45)c(Cl)cc23)C[C@@H]1CC#N` [Compound 15, (2S,4R)-1-[(2S)-2-[2-({1-[2-({6-chloro-4-[(3S)-3-(cyanomethyl)-4-(2-fluoroprop-2-enoyl)piperazin-1-yl]-8-fluoro-7-(3-hydroxynaphthalen-1-yl)quinazolin-2-yl}oxy)ethyl]piperidin-4-yl}methoxy)acetamido]-3,3-dimethylbutanoyl]-4-hydroxy-N-[(1S)-1-[4-(4-methyl-1,3-thiazol-5-yl)phenyl]ethyl]pyrrolidine-2-carboxamide], the Dmax on HiBit-KRAS^G12C [1] (setting [3]) was 35 to 70%; on HiBit-KRAS^G12C [2] (setting [4]), greater than 70%. Moreover, the DC50 on HiBit-KRAS^G12C [2] (setting [5]) was 100 to 1000 nM.

`C=CC(=O)N1CCN(c2nc(OCCN3CCC(OCCOCC(=O)N[C@H](C(=O)N4C[C@@H](O)C[C@H]4C(=O)N[C@@H](C)c4ccc(-c5scnc5C)cc4)C(C)(C)C)CC3)nc3c(F)c(-c4cc(O)cc5ccccc45)c(Cl)cc23)C[C@@H]1CC#N` [Compound 7, (2S,4S)-1-[(2S)-2-{2-[2-({1-[2-({6-chloro-4-[(3S)-3-(cyanomethyl)-4-(prop-2-enoyl)piperazin-1-yl]-8-fluoro-7-(3-hydroxynaphthalen-1-yl)quinazolin-2-yl}oxy)ethyl]piperidin-4-yl}oxy)ethoxy]acetamido}-3,3-dimethylbutanoyl]-4-hydroxy-N-[(1S)-1-[4-(4-methyl-1,3-thiazol-5-yl)phenyl]ethyl]pyrrolidine-2-carboxamide]: the Dmax at HiBit-KRAS^G12C [1] (setting [3]) was 35 to 70%. Also, the DC50 on HiBit-KRAS^G12C [2] (setting [5]) is greater than 1000 nM.

In the case of `C=CC(=O)N1CCN(c2nc(O[C@H]3CCC[C@@H]3N3CCC(COCC(=O)N[C@H](C(=O)N4C[C@H](O)C[C@H]4C(=O)N[C@@H](C)c4ccc(-c5scnc5C)cc4)C(C)(C)C)CC3)nc3c(F)c(-c4cc(O)cc5ccccc45)c(Cl)cc23)C[C@@H]1CC#N` [Compound 127, (2S,4R)-1-[(2S)-2-[2-({1-[(1S,2S)-2-({6-chloro-4-[(3S)-3-(cyanomethyl)-4-(prop-2-enoyl)piperazin-1-yl]-8-fluoro-7-(3-hydroxynaphthalen-1-yl)quinazolin-2-yl}oxy)cyclopentyl]piperidin-4-yl}methoxy)acetamido]-3,3-dimethylbutanoyl]-4-hydroxy-N-[(1S)-1-[4-(4-methyl-1,3-thiazol-5-yl)phenyl]ethyl]pyrrolidine-2-carboxamide], the Dmax on HiBit-KRAS^G12C [1] (setting [6]) and at HiBit-KRAS^G12C [2] (setting [8]) was 35 to 70% in each case. Further, the DC50 at HiBit-KRAS^G12C [1] (setting [7]) and at HiBit-KRAS^G12C [2] (setting [9]) was 100 to 1000 nM each time.

In the case of `C=C(F)C(=O)N1CCN(c2nc(OCCN3CCC(OCCOc4cc([C@H](C(=O)N5C[C@H](O)C[C@H]5C(=O)N[C@@H](C)c5ccc(-c6scnc6C)cc5)C(C)C)on4)CC3)nc3c(F)c(-c4cc(O)cc5ccccc45)c(Cl)cc23)C[C@@H]1CC#N` [Compound 16, (2S,4R)-1-[(2R)-2-{3-[2-({1-[2-({6-chloro-4-[(3S)-3-(cyanomethyl)-4-(2-fluoroprop-2-enoyl)piperazin-1-yl]-8-fluoro-7-(3-hydroxynaphthalen-1-yl)quinazolin-2-yl}oxy)ethyl]piperidin-4-yl}oxy)ethoxy]-1,2-oxazol-5-yl}-3-methylbutanoyl]-4-hydroxy-N-[(1S)-1-[4-(4-methyl-1,3-thiazol-5-yl)phenyl]ethyl]pyrrolidine-2-carboxamide], the Dmax at HiBit-KRAS^G12C [1] (setting [10]) is 35 to 70%; at HiBit-KRAS^G12C [1] (setting [6]) it was greater than 70%; at HiBit-KRAS^G12C [2] (setting [11]) it was greater than 70%; on HiBit-KRAS^G12C [2] (setting [8]), greater than 70%. Moreover, the DC50 on HiBit-KRAS^G12C [2] (setting [5]) was in the range of 100 to 1000 nM.

In the case of `C=C(F)C(=O)N1CCN(c2nc(O[C@H](C)CN3CCC(COc4cc([C@H](C(=O)N5C[C@H](O)C[C@H]5C(=O)N[C@@H](C)c5ccc(-c6scnc6C)cc5)C(C)C)on4)CC3)nc3c(F)c(-c4cc(O)cc5ccccc45)c(Cl)cc23)C[C@@H]1CC#N` [Compound 155, (2S,4R)-1-[(2R)-2-[3-({1-[(2R)-2-({6-chloro-4-[(3S)-3-(cyanomethyl)-4-(2-fluoroprop-2-enoyl)piperazin-1-yl]-8-fluoro-7-(3-hydroxynaphthalen-1-yl)quinazolin-2-yl}oxy)propyl]piperidin-4-yl}methoxy)-1,2-oxazol-5-yl]-3-methylbutanoyl]-4-hydroxy-N-[(1S)-1-[4-(4-methyl-1,3-thiazol-5-yl)phenyl]ethyl]pyrrolidine-2-carboxamide], the Dmax on HiBit-KRAS^G12C [1] (setting [6]) and on HiBit-KRAS^G12C [2] (setting [8]) was less than 35% in each case. The DC50 on HiBit-KRAS^G12C [1] (setting [7]) and on HiBit-KRAS^G12C [2] (setting [9]) was 100 to 1000 nM in each case.

For `C=CC(=O)N1CCN(c2nc(O[C@H](C)CN3CCC(OCC(=O)N[C@H](C(=O)N4C[C@H](O)C[C@H]4C(=O)N[C@@H](C)c4ccc(-c5scnc5C)cc4)C(C)(C)C)CC3)nc3c(F)c(-c4cc(O)cc5ccccc45)c(Cl)cc23)CC1` [Compound 43, (2S,4R)-1-[(2S)-2-[2-({1-[(2R)-2-{[6-chloro-8-fluoro-7-(3-hydroxynaphthalen-1-yl)-4-[4-(prop-2-enoyl)piperazin-1-yl]quinazolin-2-yl]oxy}propyl]piperidin-4-yl}oxy)acetamido]-3,3-dimethylbutanoyl]-4-hydroxy-N-[(1S)-1-[4-(4-methyl-1,3-thiazol-5-yl)phenyl]ethyl]pyrrolidine-2-carboxamide], the Dmax at HiBit-KRAS^G12C [1] (setting [10]) was 35 to 70%; on HiBit-KRAS^G12C [1] (setting [6]) it was 35 to 70%; at HiBit-KRAS^G12C [2] (setting [11]), 35 to 70%; on HiBit-KRAS^G12C [2] (setting [8]) it was greater than 70%. Further, on HiBit-KRAS^G12C [2] (setting [5]), the DC50 was 100 to 1000 nM.

Take `C=CC(=O)N1CCN(c2nc(O[C@H](C)CN3CCN(CCCN4CCN(CC(=O)N[C@H](C(=O)N5C[C@H](O)C[C@H]5C(=O)N[C@@H](C)c5ccc(-c6scnc6C)cc5)C(C)(C)C)CC4)CC3)nc3c(F)c(-c4cc(O)cc5ccccc45)c(Cl)cc23)CC1` [Compound 49, (2S,4R)-1-[(2S)-2-{2-[4-(3-{4-[(2R)-2-{[6-chloro-8-fluoro-7-(3-hydroxynaphthalen-1-yl)-4-[4-(prop-2-enoyl)piperazin-1-yl]quinazolin-2-yl]oxy}propyl]piperazin-1-yl}propyl)piperazin-1-yl]acetamido}-3,3-dimethylbutanoyl]-4-hydroxy-N-[(1S)-1-[4-(4-methyl-1,3-thiazol-5-yl)phenyl]ethyl]pyrrolidine-2-carboxamide]: the DC50 at HiBit-KRAS^G12C [1] (read-out: KRas^G12C-HiBiT (MiaPaCa; 0.1% DMSO) IC50, MiaPaCa-2 HiBit-KRas^G12C cells, 0.1% DMSO) is greater than 1000 nM; on HiBit-KRAS^G12C [2] (setting [5]), 100 to 1000 nM. Besides, on HiBit-KRAS^G12C [2] (setting [4]), the Dmax was less than 35%.

As for `C=C(F)C(=O)N1CCN(c2nc(OCCN3CCC(COc4cc([C@H](C(=O)N5C[C@H](O)C[C@H]5C(=O)N[C@@H](C)c5ccc(-c6scnc6C)cc5)C(C)C)on4)CC3)nc3c(F)c(-c4cc(O)cc5ccccc45)c(Cl)cc23)C[C@@H]1CC#N` (atropisomer, axis not shown) [Compound 167, (2S,4R)-1-[(2R)-2-[3-({1-[2-({6-chloro-4-[(3S)-3-(cyanomethyl)-4-(2-fluoroprop-2-enoyl)piperazin-1-yl]-8-fluoro-7-(3-hydroxynaphthalen-1-yl)quinazolin-2-yl}oxy)ethyl]piperidin-4-yl}methoxy)-1,2-oxazol-5-yl]-3-methylbutanoyl]-4-hydroxy-N-[(1S)-1-[4-(4-methyl-1,3-thiazol-5-yl)phenyl]ethyl]pyrrolidine-2-carboxamide], on HiBit-KRAS^G12C [1] (setting [6]), the Dmax is greater than 70%. Further, the DC50 on HiBit-KRAS^G12C [1] (setting [7]) and on HiBit-KRAS^G12C [2] (setting [9]) was less than 100 nM each time. Moreover, at HiBit-KRAS^G12C [2] (SW1573 HiBit-KRas^G12C, 0.5% DMSO), the “KRas^G12C-HiBiT (SW1573; 0.5% DMSO) Dmax**” value was “A (A ≥ 70)”.
